Read-outs that look alike come from different tables or passages of the source.
Experiments:
NCI-H358 (K-Ras G12C) = test: CellTiter-Glo cell viability assay, NCI-H358; assay type: cell-based, human; conditions: Homo sapiens, NCI-H358, 120 h, class symbols
Summary of the method: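 Compounds dispensed directly onto seeded K-Ras mutant cells; plates read on day 5 after ~30 min equilibration to room temperature, by CellTiter-Glo luminescence. Signal normalized as (sample/mean DMSO)×100, then fitted to a four-parameter logistic curve.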

K-Ras G12C = K-Ras G12C (Homo sapiens (Human), UniProt P01116+P62937, G12C); test: Ras-Raf (BRAF RBD) disruption / FRET / MOA assay, KRAS G12C; assay type: biochemical; conditions: KRAS G12C, Ras-Raf disruption/FRET/MOA assay
Summary of the method: (§1)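 TR-FRET read-out: a drop in ratio relative to DMSO wells marks disruption of the Ras:RAF complex, reported as IC50. Compounds (3-fold series, 10 points, top 30 μM final) incubated 3 h at 25° C before Eu-anti-His 10 nM and APC-anti-GST 50 nM, 1.5 h more.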

K-Ras G13C = K-Ras G13C (Homo sapiens (Human), UniProt P01116+P62937, G13C); test: Ras-Raf (BRAF RBD) disruption / FRET / MOA assay, KRAS G13C; assay type: biochemical; conditions: KRAS G13C; Ras-Raf disruption/FRET/MOA assay; read-out: IC50* KRAS G13C FRET data
Summary of the method: as §1

KRAS G12S = KRAS G12S (Homo sapiens (Human), UniProt P01116+P62937, G12S); test: Ras-Raf (BRAF RBD) disruption / FRET / MOA assay, KRAS G12S; assay type: biochemical; conditions: Ras-Raf disruption/FRET/MOA assay; class symbols; read-out: KRAS G12S FRET data IC50
Summary of the method: as §1

KRAS G12V = KRAS G12V (Homo sapiens (Human), UniProt P01116+P62937, G12V); test: Ras-Raf (BRAF RBD) disruption / FRET / MOA assay, KRAS G12V; assay type: biochemical; conditions: read-out: IC50* KRAS G12V FRET data
Summary of the method: as §1

KRAS WT = KRAS WT (Homo sapiens (Human), UniProt P01116+P62937); test: Ras-Raf (BRAF RBD) disruption / FRET / MOA assay, KRAS WT; assay type: biochemical; conditions: read-out: IC50* KRAS WT FRET data
Summary of the method: as §1

KRAS G13D = KRAS G13D (Homo sapiens (Human), UniProt P01116+P62937, G13D); test: Ras-Raf (BRAF RBD) disruption / FRET / MOA assay, KRAS G13D; assay type: biochemical
Summary of the method: as §1

KRAS Q61H = KRAS Q61H (Homo sapiens (Human), UniProt P01116+P62937, Q61H); test: Ras-Raf (BRAF RBD) disruption / FRET / MOA assay, KRAS Q61H; assay type: biochemical; conditions: class symbols
Summary of the method: (§2)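 Compounds were tested as a 10-point 3-fold dilution series from 30 μM final for their ability to drive ternary complex formation between nucleotide-loaded Ras and cyclophilin A, displacing the BRAF RBD. After 3 h at 25° C., anti-His Eu-W1024 (10 nM) and anti-GST allophycocyanin (50 nM) were added for 1.5 h. A TR-FRET ratio decrease versus DMSO gave IC50.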

NRAS Q61K = NRAS Q61K (Homo sapiens (Human), UniProt P01111+P62937, Q61K); test: Ras-Raf (BRAF RBD) disruption / FRET / MOA assay, NRAS Q61K; assay type: biochemical
Summary of the method: as §2

[1] = NCI-H358, 5-day treatment, read-out: Additional H358 Cell Viability assay data (K-Ras G12C, IC50)
[2] = read-out: IC50* KRAS G12C FRET data
[3] = read-out: IC50* KRAS G13D FRET data
[4] = Ras-Raf disruption/FRET/MOA assay, read-out: KRAS Q61H FRET data IC50
[5] = NRAS Q61K, Ras-Raf disruption/FRET/MOA assay, read-out: IC50* NRAS Q61K FRET data

K-Ras G12C, sequence (P01116-2 other isoform, or with tags, fused parts or gaps G12C): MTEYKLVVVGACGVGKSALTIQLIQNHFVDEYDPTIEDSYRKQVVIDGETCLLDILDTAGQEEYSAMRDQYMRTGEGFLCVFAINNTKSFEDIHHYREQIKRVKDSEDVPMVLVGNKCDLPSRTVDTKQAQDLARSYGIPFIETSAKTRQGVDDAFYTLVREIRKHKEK
K-Ras G12C, sequence (P62937 whole entry): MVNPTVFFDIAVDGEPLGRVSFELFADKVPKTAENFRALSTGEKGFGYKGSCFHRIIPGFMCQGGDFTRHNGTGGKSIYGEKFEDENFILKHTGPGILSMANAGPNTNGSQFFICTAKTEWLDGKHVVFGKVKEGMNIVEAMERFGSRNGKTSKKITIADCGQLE
KRAS G12V, sequence (P01116-2 other isoform, or with tags, fused parts or gaps G12V): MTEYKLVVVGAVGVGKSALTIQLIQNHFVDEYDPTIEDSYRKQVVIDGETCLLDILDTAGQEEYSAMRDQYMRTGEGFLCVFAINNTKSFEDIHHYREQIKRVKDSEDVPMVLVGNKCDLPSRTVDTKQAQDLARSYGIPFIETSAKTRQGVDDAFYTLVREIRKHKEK
KRAS G12V, sequence (P62937 whole entry): as the sequence (P62937 whole entry) above
KRAS G12S, sequence (P01116-2 other isoform, or with tags, fused parts or gaps G12S): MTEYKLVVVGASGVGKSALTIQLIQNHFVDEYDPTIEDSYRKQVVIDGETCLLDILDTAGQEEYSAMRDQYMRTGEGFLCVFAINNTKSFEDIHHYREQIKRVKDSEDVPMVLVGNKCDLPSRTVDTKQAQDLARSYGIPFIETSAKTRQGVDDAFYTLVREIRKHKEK
KRAS G12S, sequence (P62937 whole entry): as the sequence (P62937 whole entry) above
KRAS G13D, sequence (P01116-2 other isoform, or with tags, fused parts or gaps G13D): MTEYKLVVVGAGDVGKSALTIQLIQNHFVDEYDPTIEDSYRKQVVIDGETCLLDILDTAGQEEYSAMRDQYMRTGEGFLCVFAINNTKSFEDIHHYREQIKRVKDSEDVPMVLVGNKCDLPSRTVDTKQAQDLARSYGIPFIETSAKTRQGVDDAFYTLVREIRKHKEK
KRAS G13D, sequence (P62937 whole entry): as the sequence (P62937 whole entry) above
NRAS Q61K, sequence (P01111 whole entry Q61K): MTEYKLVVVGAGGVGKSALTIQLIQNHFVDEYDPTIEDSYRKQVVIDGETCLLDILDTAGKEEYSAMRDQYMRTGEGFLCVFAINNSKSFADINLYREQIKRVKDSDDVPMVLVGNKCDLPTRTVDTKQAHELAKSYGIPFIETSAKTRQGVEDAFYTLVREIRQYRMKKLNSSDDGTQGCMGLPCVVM
NRAS Q61K, sequence (P62937 whole entry): as the sequence (P62937 whole entry) above
KRAS WT, sequence (P01116-2 other isoform, or with tags, fused parts or gaps): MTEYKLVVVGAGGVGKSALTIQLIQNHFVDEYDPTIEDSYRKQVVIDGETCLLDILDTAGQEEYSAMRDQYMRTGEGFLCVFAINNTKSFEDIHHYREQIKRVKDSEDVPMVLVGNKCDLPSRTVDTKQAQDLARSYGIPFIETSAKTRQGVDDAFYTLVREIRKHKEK
KRAS WT, sequence (P62937 whole entry): as the sequence (P62937 whole entry) above
KRAS Q61H, sequence (P01116-2 other isoform, or with tags, fused parts or gaps Q61H): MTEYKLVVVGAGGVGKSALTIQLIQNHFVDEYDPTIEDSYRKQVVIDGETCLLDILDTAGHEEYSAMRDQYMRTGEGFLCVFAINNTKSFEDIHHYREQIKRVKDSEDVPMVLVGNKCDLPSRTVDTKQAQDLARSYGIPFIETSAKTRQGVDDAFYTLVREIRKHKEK
KRAS Q61H, sequence (P62937 whole entry): as the sequence (P62937 whole entry) above
K-Ras G13C, sequence (P01116-2 other isoform, or with tags, fused parts or gaps G13C): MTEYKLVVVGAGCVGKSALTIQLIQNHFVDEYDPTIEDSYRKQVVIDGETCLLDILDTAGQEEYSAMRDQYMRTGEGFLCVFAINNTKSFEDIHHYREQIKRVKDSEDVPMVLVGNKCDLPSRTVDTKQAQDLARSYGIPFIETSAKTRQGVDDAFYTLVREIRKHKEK
K-Ras G13C, sequence (P62937 whole entry): as the sequence (P62937 whole entry) above

Row | Compound | IC50 (NCI-H358 (K-Ras G12C); [1]) [µM] | IC50 (K-Ras G12C; [2]) [nM] | IC50 (K-Ras G13C) [nM] | IC50 (KRAS G12S) [nM] | IC50 (KRAS G12V) [nM] | IC50 (KRAS WT) [nM] | IC50 (KRAS G13D; [3]) [nM] | IC50 (KRAS Q61H; [4]) [nM] | IC50 (NRAS Q61K; [5]) [nM] | IC50 (NCI-H358 (K-Ras G12C); read-out: Additional H358 Cell Viability assay data (K-Ras G12C, IC50, uM), NCI-H358, 5-day treatment) [µM] | IC50 (K-Ras G12C; IC50* KRAS G12C FRET data) [nM] | IC50 (KRAS G13D; IC50* KRAS G13D FRET data) [nM] | IC50 (KRAS Q61H; KRAS Q61H FRET data IC50, Ras-Raf disruption/FRET/MOA assay) [nM] | IC50 (NRAS Q61K) [nM]
1 | C=CC(=O)N1CC[C@H]2[C@@H]1CN2C(=O)N(C)[C@H](C(=O)N[C@H]1Cc2nc(cs2)-c2ccc3c(c2)c(c(-c2cccnc2[C@H](C)OC)n3CC)CC(C)(C)COC(=O)[C@@H]2CCCN(N2)C1=O)C(C)C (atropisomer, axis not shown) [Example A547] | 0.1 to 1 | 100 to 1000 | 100 to 1000 | 1000 to 10000 | 1000 to 10000 | 100 to 1000 | 1000 to 10000 | 100 to 1000 | 100 to 1000 | – | – | – | – | –
2 | CCn1c(-c2cccnc2[C@H](C)OC)c2c3cc(ccc31)-c1cccc(c1)C[C@H](NC(=O)[C@H](C(C)C)N1CC[C@@]3(CCN(C(=O)C#C[C@@H]4COCCN4C)C3)C1=O)C(=O)N1CCC[C@H](N1)C(=O)OCC(C)(C)C2 (atropisomer, axis not shown) [Example A549] | – | – | 100 to 1000 | 1000 to 10000 | 1000 to 10000 | 1000 to 10000 | – | – | – | < 0.01 | < 10 | 1000 to 10000 | 100 to 1000 | 1000 to 10000
3 | CCn1c(-c2cccnc2[C@H](C)OC)c2c3cc(ccc31)-c1cccc(c1)C[C@H](NC(=O)[C@H](C(C)C)N1CC[C@]3(CCN(C(=O)C#C[C@@]4(N(C)C)CCOC4)C3)C1=O)C(=O)N1CCC[C@H](N1)C(=O)OCC(C)(C)C2 (atropisomer, axis not shown) [Example A560] | < 0.01 | 10 to 100 | 100 to 1000 | 100 to 1000 | 1000 to 10000 | 1000 to 10000 | 1000 to 10000 | 100 to 1000 | 1000 to 10000 | – | – | – | – | –
4 | C=CC(=O)N1C[C@@H]2CN(C(=O)N(C)[C@H](C(=O)N[C@H]3Cc4nc(cs4)-c4ccc5c(c4)c(c(-c4cccnc4[C@H](C)OC)n5CC)CC(C)(C)COC(=O)[C@@H]4CCCN(N4)C3=O)C(C)C)[C@@H]2C1 (atropisomer, axis not shown) [Example A561] | 0.1 to 1 | 100 to 1000 | 100 to 1000 | 1000 to 10000 | 1000 to 10000 | 1000 to 10000 | 1000 to 10000 | 100 to 1000 | 100 to 1000 | – | – | – | – | –
5 | C=CC(=O)N1CCO[C@H]2CN(C(=O)N(C)[C@H](C(=O)N[C@H]3CC4=NN=C(O4)c4ccc5c(c4)c(c(-c4cccnc4[C@H](C)OC)n5CC(F)(F)F)CC(C)(C)COC(=O)[C@@H]4CCCN(N4)C3=O)C(C)C)C[C@H]21 (atropisomer, axis not shown) [Example A576] | 0.1 to 1 | 100 to 1000 | 100 to 1000 | > 10000 | > 10000 | 1000 to 10000 | > 10000 | 1000 to 10000 | 1000 to 10000 | – | – | – | – | –
6 | CO[C@@H](C)c1ncccc1-c1c2c3cc(ccc3n1CC(F)(F)F)-c1nc(co1)C[C@H](NC(=O)[C@H](C(C)C)N(C)C(=O)C1(F)CCN(C(=O)C#CC(C)(C)N(C)C)CC1)C(=O)N1CCC[C@H](N1)C(=O)OCC(C)(C)C2 (atropisomer, axis not shown) [Example A578] | < 0.01 | < 10 | 10 to 100 | 100 to 1000 | 100 to 1000 | 100 to 1000 | 100 to 1000 | 10 to 100 | 100 to 1000 | – | – | – | – | –
7 | CCn1c(-c2cccnc2[C@H](C)OC)c2c3cc(ccc31)-c1cccc(c1)C[C@H](NC(=O)[C@@H](CO[C@H]1CCN(C(=O)C#CC(C)(C)N(C)C)C1)C(C)C)C(=O)N1CCC[C@H](N1)C(=O)OCC(C)(C)C2 (atropisomer, axis not shown) [Example A585] | < 0.01 | 10 to 100 | 1000 to 10000 | 1000 to 10000 | 1000 to 10000 | 1000 to 10000 | > 10000 | 1000 to 10000 | > 10000 | – | – | – | – | –
8 | CCn1c(-c2cccnc2[C@H](C)OC)c2c3cc(ccc31)C1=CCCN(C1)C[C@H](NC(=O)[C@H](C(C)C)N(C)C(=O)C1(F)CCN(C(=O)C#CC(C)(C)N(C)C)CC1)C(=O)N1CCC[C@H](N1)C(=O)OCC(C)(C)C2 (atropisomer, axis not shown) [Example A591] | < 0.01 | < 10 | 10 to 100 | 100 to 1000 | 100 to 1000 | 100 to 1000 | 100 to 1000 | 100 to 1000 | 1000 to 10000 | – | – | – | – | –
9 | CCn1c(-c2cccnc2[C@H](C)OC)c2c3cc(ccc31)-c1cccc(c1)C[C@H](NC(=O)[C@@H](COC1CN(C(=O)C#CC(C)(C)N(C)C(C)C)C1)C(C)C)C(=O)N1CCC[C@H](N1)C(=O)OCC(C)(C)C2 (atropisomer, axis not shown) [Example A599] | < 0.01 | < 10 | 1000 to 10000 | > 10000 | 1000 to 10000 | > 10000 | > 10000 | > 10000 | > 10000 | – | – | – | – | –
10 | CO[C@@H](C)c1ncccc1-c1c2c3cc(ccc3n1CC(F)(F)F)-c1cccc(c1)CN(NC(=O)[C@@H](COC1CN(C(=O)C#CC(C)(C)N(C)C)C1)C(C)C)C(=O)N1CCC[C@H](N1)C(=O)OCC(C)(C)C2 (atropisomer, axis not shown) [Example A601] | < 0.01 | < 10 | 100 to 1000 | 1000 to 10000 | 1000 to 10000 | 1000 to 10000 | 1000 to 10000 | 1000 to 10000 | 1000 to 10000 | – | – | – | – | –
11 | CO[C@@H](C)c1ncccc1-c1c2c3cc(ccc3n1CC(F)(F)F)-c1csc(n1)C[C@H](NC(=O)[C@H](C(C)C)N(C)C(=O)N1CCC3(CC1)CN(C(=O)/C=C/CF)C3)C(=O)N1CCC[C@H](N1)C(=O)OCC(C)(C)C2 (atropisomer, axis not shown) [Example A602] | < 0.01 | 10 to 100 | 10 to 100 | 10 to 100 | 10 to 100 | 10 to 100 | 100 to 1000 | 10 to 100 | 10 to 100 | – | – | – | – | –
12 | C=CC(=O)N1CCOC2(CCN(C(=O)N(C)[C@H](C(=O)N[C@H]3Cc4nc(n(C)n4)-c4ccc5c(c4)c(c(-c4cccnc4[C@H](C)OC)n5CC(F)(F)F)CC(C)(C)COC(=O)[C@@H]4CCCN(N4)C3=O)C(C)C)CC2)C1 (atropisomer, axis not shown) [Example A606] | 0.1 to 1 | 100 to 1000 | 10 to 100 | 100 to 1000 | 100 to 1000 | 100 to 1000 | 100 to 1000 | 10 to 100 | 100 to 1000 | – | – | – | – | –
13 | C=CC(=O)N1CC2(C1)OCCN2C(=O)N(C)[C@H](C(=O)N[C@H]1Cc2nc(cs2)-c2ccc3c(c2)c(c(-c2cccnc2[C@H](C)OC)n3CC)CC(C)(C)COC(=O)[C@@H]2CCCN(N2)C1=O)C(C)C (atropisomer, axis not shown) [Example A620] | < 0.01 | < 10 | 100 to 1000 | 100 to 1000 | 100 to 1000 | 100 to 1000 | 100 to 1000 | 10 to 100 | 10 to 100 | – | – | – | – | –
14 | CCn1c(-c2cccnc2[C@H](C)OC)c2c3cc(ccc31)-c1cccc(n1)C[C@H](NC(=O)[C@H](C(C)C)N(C)C(=O)N1CCC13CN(C(=O)C#CC(C)(C)N(C)C)C3)C(=O)N1CCC[C@H](N1)C(=O)OCC(C)(C)C2 (atropisomer, axis not shown) [Example A623] | 0.01 to 0.1 | 100 to 1000 | 1000 to 10000 | 1000 to 10000 | 1000 to 10000 | 1000 to 10000 | 1000 to 10000 | 100 to 1000 | 100 to 1000 | – | – | – | – | –
15 | CCn1c(-c2cccnc2[C@H](C)OC)c2c3cc(ccc31)-c1csc(n1)C[C@H](NC(=O)C[C@H](C)OC1CN(C(=O)C#CC(C)(C)N(C)C)C1)C(=O)N1CCC[C@H](N1)C(=O)OCC(C)(C)C2 (atropisomer, axis not shown) [Example A637] | 0.01 to 0.1 | 10 to 100 | 1000 to 10000 | 1000 to 10000 | 1000 to 10000 | 1000 to 10000 | 1000 to 10000 | 1000 to 10000 | 1000 to 10000 | – | – | – | – | –

— US11566007B2, “Ras inhibitors” (Revolution Medicines, Inc., priority 2019, dated 2023)
